Data reported in PubChem BioAssay (NCI).
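Exposure lasted 48 hours, with cells grown in 96-well plates and compounds tested at five concentrations. Here, GI50 denotes the concentration required for 50% inhibition of growth. TGI marks complete inhibition of growth.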

Assays:
Experiment in all cases: DTP human tumour cell line panel, 48 h
HOP-92 NSCLC = system: HOP-92 NSCLC
SK-MEL-2 melanoma = system: SK-MEL-2 melanoma
HL-60(TB) leukemia = system: HL-60(TB) leukemia
SF-295 CNS = system: SF-295 CNS
SNB-75 CNS = system: SNB-75 CNS
SN12C renal = system: SN12C renal
MDA-MB-435 = system: MDA-MB-435
HOP-62 NSCLC = system: HOP-62 NSCLC
SF-539 CNS = system: SF-539 CNS
OVCAR-8 ovarian = system: OVCAR-8 ovarian

Row | Structure (SMILES) | GI50 (HOP-92 NSCLC) [µM] | TGI (HOP-92 NSCLC) [µM] | GI50 (SK-MEL-2 melanoma) [µM] | TGI (SK-MEL-2 melanoma) [µM] | GI50 (HL-60(TB) leukemia) [µM] | TGI (HL-60(TB) leukemia) [µM] | GI50 (SF-295 CNS) [µM] | TGI (SF-295 CNS) [µM] | GI50 (SNB-75 CNS) [µM] | TGI (SNB-75 CNS) [µM] | GI50 (SN12C renal) [µM] | TGI (SN12C renal) [µM] | GI50 (MDA-MB-435) [µM] | TGI (MDA-MB-435) [µM] | GI50 (HOP-62 NSCLC) [µM] | TGI (HOP-62 NSCLC) [µM] | GI50 (SF-539 CNS) [µM] | TGI (SF-539 CNS) [µM] | TGI (OVCAR-8 ovarian) [µM] | GI50 (OVCAR-8 ovarian) [µM]
1 | N=c1ccn2c(n1)O[C@@H]1[C@@H](O)[C@H](CO)O[C@@H]12 | 9.94 | > 100 | 15.8 | > 100 | 8.41 | > 100 | 16.2 | > 100 | 1.58 | 47.6 | 2.86 | > 100 | 4.13 | > 100 | 0.783 | 23 | 63.9 | > 100 | > 100 | 
2 | O=C(Nc1ccc(Br)cc1F)c1cc(Br)ccc1O | 0.177 | 0.651 | 0.387 | 2.42 | 0.59 | 3.59 | 1.58 | 3.56 | 0.768 | 5.95 | 0.519 | 6.39 | 0.846 | 5.63 | 1.45 | 6.36 | 0.552 | 4.64 | 15.4 | 0.959
3 | O=C(CN1CCN(c2ccc(Cl)cc2)CC1)N1CCN(c2nnc(-c3ccccc3)c(-c3ccccc3)n2)CC1 | 6.68 | > 100 | > 100 | > 100 | 2.33 | > 100 | 4.88 | > 100 | 7.56 | > 100 | 8.23 | > 100 | 7.25 | > 100 | > 100 | > 100 | 7.65 | > 100 | > 100 | 52.4
4 | Cc1ccccc1/C=C1\CN(C(=O)OC(C)(C)C)C/C(=C\c2ccccc2C)C1=O | 1.9 | 5.75 | 10.1 | 26.5 | 2.47 | 8.8 | 2.19 | 5.37 | 2.71 | 9.34 | 2.7 | 6.43 | 2.51 | 5.45 | 3.43 | 11.3 | 1.94 | 3.64 | > 100 | 3.49
5 | CN1CCCN(C(c2ccccc2)c2ccc(Br)cc2)CC1 (stereo not drawn) | 0.635 | 7.73 | 3.66 | 11.3 | 3.52 | 34.1 | 3.52 | 14.5 | 3.1 | 17.9 | 3.51 | 12.5 | 1.87 | 3.83 | 6.52 | 19.3 | 3.09 | 11.1 | 21 | 6.5
6 | O=C(/C=C/c1cccnc1)c1ccccc1O | 10.4 | 32.5 | 22.8 | 62.2 | 18.1 | 43 | 16.6 | 41.7 | 16.5 | 59.1 | 24.4 | 81.9 | 16.4 | 37 | 17.5 | 45.5 | 14.4 | 34.7 | > 100 | 31.5
7 | COc1ccc(/C=C/C(=O)c2ccc(Nc3ccnc4cc(Cl)ccc34)cc2)cc1 | > 100 | > 100 | > 100 | > 100 |  | > 35 | > 100 | > 100 | > 100 | > 100 | > 100 | > 100 | 65.6 | > 100 | > 100 | > 100 | > 100 | > 100 | > 100 | > 100
8 | CC[C@]12CCCN3CC[C@]4(C(=C(C(=O)OC)C1)Nc1ccccc14)[C@@H]32 | 7.09 | 24.6 | 16.8 | 39.2 | 21.9 | 52 | 17.9 | 36.1 | 13.6 | 61.9 | 16.4 | 33.2 | 11.1 | 41 | 15.6 | 32.7 | 18.2 | 37.9 | 38.9 | 17.6
9 | COc1cc(NC(N)=NCCC(C)(C)c2ccc(C(F)(F)F)cc2)ncc1C#N | 1.3 | 2.74 | 1.84 | 3.38 | 0.278 | 0.868 | 1.6 | 3.06 | 1.66 | 3.26 | 1.47 | 2.82 | 1.78 | 3.25 | 1.78 | 3.25 | 1.87 | 3.33 | 3.18 | 1.7
10 | COc1ccc(Cn2c(Br)c3c(c2-c2cc(OC)c(OC)c(OC)c2)CCc2sc(NC(C)=O)nc2-3)cc1 | 1.88 | 9.64 | 3.82 | > 100 | 3.27 | 8.06 | 2.41 | 8.54 | 1.82 | > 100 | 4.99 | > 100 | 0.613 | 4.36 | 5.52 | > 100 | 2.41 | 6.79 | > 100 | 4.7
